Laboratory results from US9283281B2, “Preparation of triple responsive nanogel system and its application” (University of South Carolina, priority 2013, dated 2016).

Tested on: UMSCC22A cells
Experiment: Cell death after PDT by propidium iodide fluorometry
Type: cell-based
Settings: after irradiation; after 5 h of PDT
Procedure: After exposure to red light, cells were incubated for various periods of time prior to analysis.
Cell death was assessed by propidium iodide (PI) fluorometry using a multi-well fluorescence plate reader, as previously described. Human head and neck cancer cells (UMSCC22A) were plated on 96-well plates (15,000 cells/well) in Dulbecco's Modified Eagle's Medium (DMEM) (Gibco) supplemented with 10% fetal bovine serum (FBS) and penicillin/streptomycin (complete culture medium) in a humidified 37° C. incubator at 5% CO2/95% air. […] Before exposure to light, cells were changed to fresh medium supplemented with PI (30 μM) and Insulin-Transferrin-Selenium-X (ITX) reagent [insulin (10 μg/ml), transferrin (5.5 μg/m), selenium (6.7 ng/ml), ethanolamine (0.2 mg/ml)] (Gibco) but omitting FBS. PI fluorescence was measured at frequent intervals using 530 nm excitation (25 nm band pass) and 620 nm emission (40 nm band pass) filters. Between measurements, microtiter plates were placed in a 37° C. incubator. At the end of the experiment, digitonin (200 μM) was added to each well to permeabilize all cells and label all nuclei with PI. Cell viability determined by PI fluorometry is essentially the same as cell viability determined by trypan blue exclusion.

For Silicon phthalocyanine [Pc 4], the cell killing was 35%.
